# Measurements: article PMC7948948 (The Journal of Biological Chemistry, 2021)
# Values joined by “and” are separate entries in the source; they are usually repeats but may differ in a detail not shown here. Identical values can stand only once. “Also recorded” adds a separate entry of the source. Like-named read-outs stand apart in the source and are kept apart here.
# Experiments:
# [1] = target: T1, Mtb PheRS (Mycobacterium tuberculosis, UniProt P9WFU3); details: for Mode of inhibition with regard to Phe / Mode of inhibition with regard to ATP: Lineweaver-Burk plot; for Mode of inhibition with regard to ATP: no sulfate added
# [2] = target: T1, Mtb PheRS; details: for Km: read-out: Km, aminoacylation assay
# [3] = target: T1, Mtb PheRS; test: ATP consumption assay (Kinase-Glo), Mtb PheRS; assay type: biochemical
# [4] = target: T1, Mtb PheRS; test: biochemical; details: read-out: IC50, AMP Glo, Mtb PheRS
# [5] = target: T1, Mtb PheRS; test: biochemical; details: read-out: IC50, Malachite Green, Mtb PheRS
# [6] = target: T2, hFARS1 (Homo sapiens, UniProt Q9Y285); test: biochemical; details: for IC50: 50 nM enzyme, 2 μM ATP, 20 μM L-Phe, 1 mg/ml yeast total tRNA, 1 h, read-out: IC50, Kinase Glo, hFARS1
# T2 sequence (Q9Y285 1-508): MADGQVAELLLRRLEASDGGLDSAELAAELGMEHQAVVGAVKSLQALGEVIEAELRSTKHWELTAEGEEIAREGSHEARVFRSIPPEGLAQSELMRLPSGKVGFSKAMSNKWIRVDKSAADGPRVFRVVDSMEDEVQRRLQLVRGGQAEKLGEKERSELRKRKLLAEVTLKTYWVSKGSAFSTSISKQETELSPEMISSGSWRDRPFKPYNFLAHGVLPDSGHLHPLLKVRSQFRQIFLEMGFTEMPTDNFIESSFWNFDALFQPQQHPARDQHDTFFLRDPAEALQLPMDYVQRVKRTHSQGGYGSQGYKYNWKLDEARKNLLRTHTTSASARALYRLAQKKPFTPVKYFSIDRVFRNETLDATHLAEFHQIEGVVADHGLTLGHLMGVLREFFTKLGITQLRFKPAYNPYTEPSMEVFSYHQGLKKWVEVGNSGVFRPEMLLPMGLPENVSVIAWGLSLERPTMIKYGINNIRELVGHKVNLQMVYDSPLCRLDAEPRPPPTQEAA
# T2 sequence (Q9NSD9 1-589 partner): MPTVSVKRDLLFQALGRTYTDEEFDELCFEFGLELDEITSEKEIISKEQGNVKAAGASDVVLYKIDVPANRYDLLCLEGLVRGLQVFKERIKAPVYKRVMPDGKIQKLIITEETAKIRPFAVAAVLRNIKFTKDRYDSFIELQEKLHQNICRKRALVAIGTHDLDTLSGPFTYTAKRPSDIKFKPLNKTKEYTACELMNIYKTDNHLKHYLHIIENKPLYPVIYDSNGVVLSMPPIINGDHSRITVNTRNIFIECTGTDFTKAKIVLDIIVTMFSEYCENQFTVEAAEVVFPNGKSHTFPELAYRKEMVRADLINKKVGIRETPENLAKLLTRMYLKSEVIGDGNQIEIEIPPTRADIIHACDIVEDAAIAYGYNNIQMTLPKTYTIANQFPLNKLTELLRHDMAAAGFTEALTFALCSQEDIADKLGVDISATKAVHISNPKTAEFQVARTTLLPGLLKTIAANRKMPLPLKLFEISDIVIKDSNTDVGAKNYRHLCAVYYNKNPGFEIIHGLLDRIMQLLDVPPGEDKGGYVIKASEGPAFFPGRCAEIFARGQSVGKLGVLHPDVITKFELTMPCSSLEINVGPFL
# [7] = target: T3, hFARS2 (Homo sapiens, UniProt O95363); test: biochemical; details: for IC50: E. coli total tRNA 0.5 mg/ml, 1 h, read-out: IC50, Kinase Glo, hFARS2
# T3 sequence (O95363 38-451 limits assumed): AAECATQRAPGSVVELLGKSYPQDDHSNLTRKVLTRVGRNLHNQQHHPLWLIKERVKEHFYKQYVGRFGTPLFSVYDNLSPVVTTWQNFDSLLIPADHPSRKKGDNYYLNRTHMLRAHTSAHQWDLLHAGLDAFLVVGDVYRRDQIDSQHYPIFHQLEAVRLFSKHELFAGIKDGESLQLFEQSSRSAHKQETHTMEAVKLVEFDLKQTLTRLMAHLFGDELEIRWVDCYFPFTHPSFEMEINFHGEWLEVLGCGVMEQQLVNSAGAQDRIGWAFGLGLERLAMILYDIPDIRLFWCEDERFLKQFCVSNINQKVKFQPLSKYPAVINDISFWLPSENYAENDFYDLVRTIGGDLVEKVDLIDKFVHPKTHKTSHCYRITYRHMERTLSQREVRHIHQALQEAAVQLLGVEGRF
# [8] = tested on: Mtb H37Rv; test: MIC by microplate alamarBlue assay; assay type: cell-based, Mycobacterium tuberculosis; details: for MIC: Mycobacterium tuberculosis, H37RV, n = 3, read-out: MIC against Mtb H37Rv
# [9] = target: T1, Mtb PheRS; test: biochemical
# [10] = tested on: WT H37Rv; test: microbe, parasite or virus in culture; assay type: cell-based; details: Mycobacterium tuberculosis, 264 h, absorbance at 580 nm, 11 days, Gompertz fit
# [11] = in vitro; assay type: cell-based; details: human
# Procedure: (§1) HEK293T, Vero E6, and HepG2 cells were cultured in Dulbecco's modified Eagle's medium plus 10% fetal bovine serum and 1% penicillin/streptomycin at 37 °C with 5% CO2. Plates of 96 wells were plated with 100 μl 1 × 10^5 cells/ml per well and incubated for 24 h before adding compound in serial dilutions. After another 48 h, 40 μl reagents of CellTiter-Glo cell viability assay (Promega) was added, and the plates were shaken at 400 rpm for 10 min in the dark. Luminescence was recorded with plate reader. The data were analyzed with GraphPad Prism 9.
# (§2) HepG2 (A and B) is an immortal cell line derived from human liver cells. HEK-293T (C and
# (§3) D) is a human embryonic kidney 293 cell line. Vero E6 is a cell line derived from African
# (§4) green monkey kidney epithelial cells. […]
# [12] = in vitro; assay type: cell-based, human; details: human
# Procedure: as §1, §2, §3, §4
# [13] = tested on: HEK-293T; test: in vitro; assay type: cell-based, human; details: 48 h
# Procedure: as §1, §2, §3, §4
# [14] = Cytotoxicity, CellTiter-Glo, Vero E6; assay type: cell-based; details: African green monkey, Vero E6 cells
# Procedure: as §1, §2, §3, §4
# [15] = in vitro; assay type: cell-based
# Procedure: as §1
# [16] = tested on: luciferase; test: Counter-screen of Kinase-Glo coupled reaction, Mtb PheRS omitted; assay type: biochemical; details: concentrations up to 20 μM
# [17] = tested on: PPase, PNPase; test: Counter-screen of PPi production coupled reaction, Mtb PheRS omitted; assay type: biochemical; details: concentrations up to 20 μM
# [18] = tested on: HepG2; test: in vitro; assay type: cell-based; details: human, 48 h
# Procedure: as §1, §2, §3, §4
# [19] = target: human FAAH; details: cited from earlier work
# [20] = tested on: N[C@@H](Cc1ccccc1)C(=O)O; test: purified protein, by the assay type
# T1 sequence (P9WFU3 whole entry): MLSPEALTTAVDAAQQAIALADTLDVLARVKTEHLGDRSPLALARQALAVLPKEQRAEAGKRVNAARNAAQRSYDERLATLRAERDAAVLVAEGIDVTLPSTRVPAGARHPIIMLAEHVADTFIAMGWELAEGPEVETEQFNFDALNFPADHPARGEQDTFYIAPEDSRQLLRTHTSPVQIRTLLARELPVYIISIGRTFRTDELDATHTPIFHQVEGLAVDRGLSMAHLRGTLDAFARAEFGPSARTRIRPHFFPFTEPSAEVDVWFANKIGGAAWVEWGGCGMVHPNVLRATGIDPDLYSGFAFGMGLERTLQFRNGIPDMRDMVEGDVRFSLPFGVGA
# T1 sequence (P9WFU1 whole entry, further chain): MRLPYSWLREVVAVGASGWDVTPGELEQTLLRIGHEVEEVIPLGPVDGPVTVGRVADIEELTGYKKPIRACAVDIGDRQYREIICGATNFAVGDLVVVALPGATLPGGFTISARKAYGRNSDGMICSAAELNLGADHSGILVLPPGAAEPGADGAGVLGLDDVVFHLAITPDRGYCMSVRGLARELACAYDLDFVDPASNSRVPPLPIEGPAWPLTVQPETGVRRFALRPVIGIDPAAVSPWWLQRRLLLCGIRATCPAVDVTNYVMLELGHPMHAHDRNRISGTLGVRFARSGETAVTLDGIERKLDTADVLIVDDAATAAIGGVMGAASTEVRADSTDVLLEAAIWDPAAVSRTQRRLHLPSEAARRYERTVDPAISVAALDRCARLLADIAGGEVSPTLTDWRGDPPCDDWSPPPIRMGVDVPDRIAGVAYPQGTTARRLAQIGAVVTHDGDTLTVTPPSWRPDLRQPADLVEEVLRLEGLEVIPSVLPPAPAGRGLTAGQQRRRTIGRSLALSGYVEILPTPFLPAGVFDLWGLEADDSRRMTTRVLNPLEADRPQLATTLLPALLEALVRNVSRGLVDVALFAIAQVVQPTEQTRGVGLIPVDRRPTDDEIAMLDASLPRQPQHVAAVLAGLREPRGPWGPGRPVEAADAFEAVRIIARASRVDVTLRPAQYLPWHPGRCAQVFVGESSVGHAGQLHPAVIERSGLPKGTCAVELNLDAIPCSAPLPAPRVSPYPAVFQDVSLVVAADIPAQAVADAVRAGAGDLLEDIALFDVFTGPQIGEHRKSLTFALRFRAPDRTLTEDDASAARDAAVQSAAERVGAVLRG
molecule,measurement,setting,value
Nc1ncnc2c1ncn2[C@@H]1O[C@H](COP(=O)(O)OP(=O)(O)OP(=O)(O)O)[C@@H](O)[C@H]1O [ATP],Km,"[1]; read-out: apparent Km, PPi production assay",162 ± 11.6 µM
same,Km,[2],387 ± 279 µM
same,"kcat, aminoacylation assay",[2]; substrate of Mtb PheRS,0.405 ± 0.417 s⁻¹
O=C(Nc1cccc(S(=O)(=O)NCCc2c[nH]c3ccccc23)c1)Nc1nccs1 [GDI05-001],IC50,[3],1.72 ± 0.13 µM
same,IC50,[4],0.87 ± 0.06 µM
same,IC50,[5],0.52 ± 0.06 µM
same,IC50,[6],> 200 µM
same,IC50,[7],85.4 µM
same,MIC,[8],145 µM
same,Mode of inhibition with regard to Phe,[1],Phe competitive inhibitors
same,Mode of inhibition with regard to ATP,[1],noncompetitive
same,IC50,[9],1.34 µM
same,Ki,[9]; Ki in the Phe-competitive mode,0.2 ± 0.01 µM
O=C(Nc1cccnc1)N1CCC(Cc2cccc(Oc3ccc(C(F)(F)F)cn3)c2)CC1 [PF-3845],IC50,[3],2.65 ± 0.19 µM
same,IC50,[4],2.49 ± 0.19 µM
same,IC50,[5],1.95 ± 0.19 µM
same,IC50,[6],> 200 µM
same,Inhibition of human cytoplasmic PheRS,[6]; concentrations up to 200 μM,does not inhibit
same,IC50,[7],> 200 µM
same,Inhibition of human mitochondrial PheRS,[7]; concentrations up to 200 μM,does not inhibit
same,MIC,[8],~24 µM
same,MIC against Mtb H37Rv,[8]; n = 3,~23.87 µM
same,MIC,[10],220 µM
same,CC50,"[11]; 48 h, CellTiter-Glo, read-out: CC50, HepG2",21.7 ± 1.53 µM
same,CC50,"[12]; 48 h, CellTiter-Glo, read-out: CC50, HEK-293T",16.9 ± 1.54 µM
same,CC50,"[13]; CellTiter-Glo, read-out: CC50, HEK-293T",16.9 µM
same,CC50 at 48 h,[14],21.7 µM
same,CC50,"[15]; human, African green monkey",16.9 to 25.8 µM
same,CC50,"[15]; two human cell lines, preliminary result, read-out: CC50 against human cell lines (range)",16.9 to 21.7 µM
same,Inhibition of luciferase (Kinase-Glo coupled reaction),[16],did not inhibit
same,Inhibition of PPase and PNPase (PPi production coupled reaction),[17],did not inhibit
same,Mode of inhibition with regard to tRNAPhe,[1],uncompetitive inhibitor; also recorded: uncompetitive inhibition mode
same,Mode of inhibition with regard to ATP in the presence of sulfate,[1]; 5 mM (NH4)2SO4,competitive inhibition mode; also recorded: ATP competitive inhibitor
same,Mode of inhibition with regard to Phe,[1],Phe competitive inhibitors; also recorded: competitive inhibition mode
same,Mode of inhibition with regard to ATP,[1],mixed inhibition mode
same,IC50,[9],2.4 µM
same,Ki,[9]; Ki in the Phe-competitive mode,1.7 ± 0.11 µM
same,Ki,"[9]; Ki with regard to ATP when SO4 2- was absent, mixed inhibition mode, no sulfate",1.08 ± 0.245 µM
same,Ki,"[9]; Ki with regard to ATP, competitive, with sulfate, 5 mM (NH4)2SO4 in the PheRS enzyme reaction",~0.73 µM and 0.73 µM
O=C(Nc1cccnn1)N1CCC(=Cc2cccc(Oc3ccc(C(F)(F)F)cn3)c2)CC1 [PF-04457845],IC50,[3],9.76 ± 0.73 µM
same,IC50,[4],10.1 ± 1.02 µM
same,IC50,[5],11.7 ± 1.43 µM
same,IC50,[6],> 200 µM
same,IC50,[7],> 200 µM
same,CC50 at 48 h,"[11]; CC50, HepG2",25.8 ± 2.88 µM
same,CC50,[18],25.8 µM
same,CC50 at 48 h,"[12]; CC50, HEK-293T",23.6 ± 1.93 µM
same,CC50,[13]; human,23.6 µM
same,CC50 at 48 h,[15]; human,23.6 to 25.8 µM
same,CC50,"[15]; human, African green monkey",16.9 to 25.8 µM
same,kinact/Ki for covalent inhibition of human FAAH,[19],"40,300 M^−1s^−1"
same,IC50,[9],12 µM
"N[C@@H](Cc1ccccc1)C(=O)O [Phe, phenylalanine]",Km,[2],68 ± 6.6 µM
(Mycobacterium tuberculosis H37Rv),Km,[20]; pH 7.4,18.10 ± 2.44 µM
Mtb PheRS (Mycobacterium tuberculosis H37Rv),Km,[20],68.0 ± 6.6 µM
same,kcat,[20],1.1 ± 0.0517 s⁻¹
same,kcat/Km,[20],16200 M⁻¹ s⁻¹
